From ChEMBL document CHEMBL4765323, “Design, synthesis, and biological evaluation of novel miconazole analogues containing selenium as potent antifungal agents” (Eur J Med Chem, 2020) come the findings set out here.

Type in all cases: functional
One test relates to Candida parapsilosis. As to the kind of experiment: Antifungal activity against Candida parapsilosis ATCC 22019 measured after 24 hrs by micro-broth dilution assay. To be noted: Lodderomyces parapsilosis.
Test [1] relates to Candida albicans. As to the kind of experiment: Antifungal activity against fluconazole-resistant Candida albicans strain 904 measured after 24 hrs by micro-broth dilution assay. (In general: Broth dilution looks for growth in wells or tubes with falling amounts of substance.)
In test [2] the test system is Candida albicans. Kind of test: Antifungal activity against fluconazole-resistant Candida albicans 17 measured after 24 hrs by micro-broth dilution assay.
The subject of test [3] is Candida albicans. As to the kind of experiment: Antifungal activity against Candida albicans ATCC SC5314 measured after 24 hrs by micro-broth dilution assay.
The next test relates to [Candida] zeylanoides. As to the kind of experiment: Antifungal activity against Candida zeylanoides CMGCC2.3739 measured after 24 hrs by micro-broth dilution assay. Particulars: Dujonia zeylanoides.
Test [4] has as its system Candida albicans. Kind of test: Antifungal activity against fluconazole-resistant Candida albicans CaR measured after 24 hrs by micro-broth dilution assay.
Test [5] has as its system Candida albicans. As to the kind of experiment: Antifungal activity against Candida albicans 901 measured after 24 hrs by micro-broth dilution assay.
For another test, the system named is Nakaseomyces glabratus. As to the kind of experiment: Antifungal activity against clinical isolate Candida glabrata measured after 24 hrs by micro-broth dilution assay.
The next test has as its system Pichia kudriavzevii. Kind of test: Antifungal activity against Candida krusei AS 2.1045 measured after 24 hrs by micro-broth dilution assay.
The test system of test [6] is Candida albicans. As to the kind of experiment: Antifungal activity against fluconazole-resistant Candida albicans 632 measured after 24 hrs by micro-broth dilution assay.
Another test has as its system Aspergillus fumigatus. Kind of test: Antifungal activity against Aspergillus fumigatus CGMCC 3.7795 measured after 72 hrs by micro-broth dilution assay.
In a further test the test system is Cryptococcus neoformans. Kind of test: Antifungal activity against Cryptococcus neoformans CGMCC2.3161 measured after 72 hrs by micro-broth dilution assay.
Test [7] concerns Candida albicans. Kind of test: Antifungal activity against Candida albicans CPCC400616 measured after 24 hrs by micro-broth dilution assay.

≈ marks a conversion by molar mass, not a printed value. Where only a bound is given, the exact number is not on record here.

As a reminder, the MIC is the lowest concentration found to suppress growth. Low readings indicate a more susceptible organism, high ones a less susceptible organism. Regarding `Cc1cccc(C[Se]C(Cn2ccnc2)c2ccc(Cl)cc2Cl)c1` (centres undefined), the MIC worked out at 1 µg/mL (≈ 2.36 µM) in the test with Candida parapsilosis; 2 µg/mL (≈ 4.71 µM) with Candida albicans [1]; 4 µg/mL (≈ 9.43 µM) in the test with Candida albicans [2]; 0.03 µg/mL (≈ 0.0707 µM) against Candida albicans [3]; 16 µg/mL (≈ 37.7 µM) in test [Candida] zeylanoides; 4 µg/mL (≈ 9.43 µM) in the test on Candida albicans [4]. The MIC against Candida albicans [5] was 2 µg/mL (≈ 4.71 µM); against Nakaseomyces glabratus it was 0.5 µg/mL (≈ 1.18 µM); against Pichia kudriavzevii, 4 µg/mL (≈ 9.43 µM); against Candida albicans [6] it was 2 µg/mL (≈ 4.71 µM); with Aspergillus fumigatus, 8 µg/mL (≈ 18.9 µM); against Cryptococcus neoformans, 0.25 µg/mL (≈ 0.589 µM). The molecule also had a minimal inhibitory concentration (MIC) against Candida albicans [7] of 0.03 µg/mL (≈ 0.0707 µM).

With `Fc1ccc(C(Cn2ccnc2)[Se]Cc2ccccc2Cl)c(F)c1` (centres undefined), the MIC with Candida parapsilosis is 0.06 µg/mL (≈ 0.146 µM); in the test on Candida albicans [1] it was 0.5 µg/mL (≈ 1.21 µM); in the test with Candida albicans [2], 1 µg/mL (≈ 2.43 µM); against Candida albicans [3], 0.01 µg/mL (≈ 0.0243 µM); in test [Candida] zeylanoides it was 0.25 µg/mL (≈ 0.607 µM); with Candida albicans [4], 2 µg/mL (≈ 4.86 µM). Further, the MIC against Candida albicans [5] worked out at 1 µg/mL (≈ 2.43 µM); in the test on Nakaseomyces glabratus, 1 µg/mL (≈ 2.43 µM); in the test on Pichia kudriavzevii it was 0.25 µg/mL (≈ 0.607 µM); against Candida albicans [6], 0.5 µg/mL (≈ 1.21 µM); in the test on Aspergillus fumigatus, 2 µg/mL (≈ 4.86 µM); in the test on Cryptococcus neoformans, 0.5 µg/mL (≈ 1.21 µM). Besides, the MIC in the test with Candida albicans [7] came out at 0.25 µg/mL (≈ 0.607 µM).

For the molecule `COc1ccc(C[Se]C(Cn2ccnc2)c2ccc(F)cc2F)cc1` (centres undefined), the minimum inhibitory concentration (MIC) against Candida parapsilosis is 0.25 µg/mL (≈ 0.614 µM); in the test with Candida albicans [1] it was 2 µg/mL (≈ 4.91 µM); in the test with Candida albicans [2] it was 8 µg/mL (≈ 19.6 µM); against Candida albicans [3], 0.13 µg/mL (≈ 0.319 µM); in test [Candida] zeylanoides, 2 µg/mL (≈ 4.91 µM); in the test on Candida albicans [4], 8 µg/mL (≈ 19.6 µM). Also, the MIC was determined as 8 µg/mL (≈ 19.6 µM) in the test with Candida albicans [5]; 0.5 µg/mL (≈ 1.23 µM) against Nakaseomyces glabratus; 2 µg/mL (≈ 4.91 µM) in the test with Pichia kudriavzevii; 8 µg/mL (≈ 19.6 µM) against Candida albicans [6]; 1 µg/mL (≈ 2.46 µM) with Aspergillus fumigatus; 0.5 µg/mL (≈ 1.23 µM) against Cryptococcus neoformans. The minimum inhibitory concentration (MIC) against Candida albicans [7] worked out at 0.25 µg/mL (≈ 0.614 µM).

Take `Fc1ccc(C(Cn2ccnc2)[Se]Cc2ccc(Br)cc2)c(F)c1` (centres undefined): the minimum inhibitory concentration (MIC) in the test with Candida parapsilosis worked out at 0.25 µg/mL (≈ 0.548 µM); in the test on Candida albicans [1], 2 µg/mL (≈ 4.38 µM); in the test with Candida albicans [2] it was 2 µg/mL (≈ 4.38 µM); with Candida albicans [3], 0.13 µg/mL (≈ 0.285 µM); in [Candida] zeylanoides it was 0.25 µg/mL (≈ 0.548 µM); against Candida albicans [4], 64 µg/mL (≈ 140 µM). Besides, the minimum inhibitory concentration (MIC) in the test with Candida albicans [5] is 2 µg/mL (≈ 4.38 µM); against Nakaseomyces glabratus, 2 µg/mL (≈ 4.38 µM); with Pichia kudriavzevii it was 1 µg/mL (≈ 2.19 µM); with Candida albicans [6], 8 µg/mL (≈ 17.5 µM); against Aspergillus fumigatus, 1 µg/mL (≈ 2.19 µM); against Cryptococcus neoformans, 0.5 µg/mL (≈ 1.1 µM). Besides, it took 0.25 µg/mL (≈ 0.548 µM) to inhibit growth with Candida albicans [7] (MIC).

With `Fc1ccc(C(Cn2ccnc2)[Se]Cc2ccccc2)c(F)c1` (centres undefined), the minimum inhibitory concentration (MIC) against Candida parapsilosis was 0.13 µg/mL (≈ 0.345 µM); against Candida albicans [1], 64 µg/mL (≈ 170 µM); in the test on Candida albicans [2] it was 8 µg/mL (≈ 21.2 µM); with Candida albicans [3], 0.13 µg/mL (≈ 0.345 µM); in test [Candida] zeylanoides, 0.5 µg/mL (≈ 1.33 µM); in the test on Candida albicans [4] it was 4 µg/mL (≈ 10.6 µM). Moreover, the MIC was found to be 2 µg/mL (≈ 5.3 µM) in the test with Candida albicans [5]; 1 µg/mL (≈ 2.65 µM) against Nakaseomyces glabratus; 0.25 µg/mL (≈ 0.663 µM) against Pichia kudriavzevii; 4 µg/mL (≈ 10.6 µM) in the test with Candida albicans [6]; 1 µg/mL (≈ 2.65 µM) against Aspergillus fumigatus; 0.5 µg/mL (≈ 1.33 µM) in the test with Cryptococcus neoformans. Also, inhibition of growth in the test with Candida albicans [7] (MIC) required 0.25 µg/mL (≈ 0.663 µM).

On to `Cc1ccc(C[Se]C(Cn2ccnc2)c2ccc(Cl)cc2Cl)cc1` (centres undefined), for which the MIC against Candida parapsilosis was 1 µg/mL (≈ 2.36 µM); in the test on Candida albicans [1], over 128 µg/mL; against Candida albicans [2] it was 32 µg/mL (≈ 75.4 µM); in the test on Candida albicans [3] it was 0.13 µg/mL (≈ 0.306 µM); in [Candida] zeylanoides, 16 µg/mL (≈ 37.7 µM); with Candida albicans [4], 16 µg/mL (≈ 37.7 µM). The MIC in the test with Candida albicans [5] came to 64 µg/mL (≈ 151 µM); against Nakaseomyces glabratus it was 1 µg/mL (≈ 2.36 µM); against Pichia kudriavzevii, 4 µg/mL (≈ 9.43 µM); against Candida albicans [6], 128 µg/mL (≈ 302 µM); in the test with Aspergillus fumigatus, 2 µg/mL (≈ 4.71 µM); against Cryptococcus neoformans, 0.25 µg/mL (≈ 0.589 µM). For the same molecule, the minimum inhibitory concentration (MIC) with Candida albicans [7] was 0.03 µg/mL (≈ 0.0707 µM).

Take `Cc1cccc(C[Se]C(Cn2ccnc2)c2ccc(F)cc2F)c1` (centres undefined): the MIC in the test on Candida parapsilosis stood at 0.25 µg/mL (≈ 0.639 µM); in the test on Candida albicans [1], 1 µg/mL (≈ 2.56 µM); in the test on Candida albicans [2], 8 µg/mL (≈ 20.4 µM); against Candida albicans [3], 0.06 µg/mL (≈ 0.153 µM); in test [Candida] zeylanoides, 1 µg/mL (≈ 2.56 µM); with Candida albicans [4] it was 2 µg/mL (≈ 5.11 µM). The minimum inhibitory concentration (MIC) is 4 µg/mL (≈ 10.2 µM) with Candida albicans [5]; 1 µg/mL (≈ 2.56 µM) with Nakaseomyces glabratus; 1 µg/mL (≈ 2.56 µM) in the test on Pichia kudriavzevii; 16 µg/mL (≈ 40.9 µM) in the test on Candida albicans [6]; 2 µg/mL (≈ 5.11 µM) against Aspergillus fumigatus; 0.5 µg/mL (≈ 1.28 µM) in the test on Cryptococcus neoformans. In the test on Candida albicans [7], this molecule yielded a minimal inhibitory concentration (MIC) of 0.13 µg/mL (≈ 0.332 µM).

`COc1cccc(C[Se]C(Cn2ccnc2)c2ccc(Cl)cc2Cl)c1` (centres undefined): the MIC against Candida parapsilosis came out at 0.13 µg/mL (≈ 0.295 µM); in the test on Candida albicans [1] it was 1 µg/mL (≈ 2.27 µM); with Candida albicans [2], 4 µg/mL (≈ 9.09 µM); in the test with Candida albicans [3], 0.06 µg/mL (≈ 0.136 µM); in [Candida] zeylanoides, 1 µg/mL (≈ 2.27 µM); against Candida albicans [4] it was 2 µg/mL (≈ 4.54 µM). The MIC in the test on Candida albicans [5] amounted to 1 µg/mL (≈ 2.27 µM); against Nakaseomyces glabratus it was 0.25 µg/mL (≈ 0.568 µM); against Pichia kudriavzevii it was 1 µg/mL (≈ 2.27 µM); in the test on Candida albicans [6], 2 µg/mL (≈ 4.54 µM); in the test with Aspergillus fumigatus, 2 µg/mL (≈ 4.54 µM); in the test with Cryptococcus neoformans it was 0.13 µg/mL (≈ 0.295 µM). The same molecule registered an MIC in the test on Candida albicans [7] of 0.06 µg/mL (≈ 0.136 µM).
